Reference: US11618742B2, “Radical polymerization initiator, composition containing same, cured product of composition, production method for cured product, and compound” (ADEKA CORPORATION, priority 2018, dated 2023)

Key:
Solubility in water = assay type: physicochemical; conditions: 25° C., RH 65%, 100 g deionized water, added 0.1 g at a time
Description: Specifically, the measurement is performed by adding the compound in an amount of 0.1 g at a time.

[1] = Maximum absorption wavelength (absorption spectrum, spectrophotometer); assay type: physicochemical
Excerpt: (2) load the measurement aqueous solution to a quartz cell (optical path length=10 mm, thickness 1.25 mm), and measure the absorption spectrum using a spectrophotometer (e.g., visible-ultraviolet absorption spectrometer V-670 manufactured by JASCO Corporation). As the absorption spectrum of the measurement aqueous solution, a corrected absorption spectrum obtained by measuring the absorption spectrum of water alone in advance and deducting this absorption spectrum of water from the absorption spectrum of the measurement aqueous solution is used. […] (2) The thus obtained measurement aqueous solutions were each loaded to a quartz cell (optical path length—10 mm, thickness 1.25 mm), and an absorption spectrum was measured using a spectrophotometer (e.g., visible-ultraviolet absorption spectrometer V-670 manufactured by JASCO Corporation). […] Further, as the absorption spectrum, a corrected absorption spectrum obtained by measuring the absorption spectrum of the solvent itself in advance and deducting this absorption spectrum of the solvent from the absorption spectrum of the measurement solution was used.

[2] = 0.1%-by-mass aqueous solution, range of 300 nm to 600 nm
[3] = measurement solution in acetonitrile (low solubility in water)

Row | Maximum absorption wavelength [1, 2] | Compound | Solubility in 100 parts by mass of water (Solubility in water) | Maximum absorption wavelength [1, 3]
1 | – | O=C(O)c1cccc2c(=O)c3ccccc3sc12 [Compound 1] | 0.9 parts by mass | –
2 | – | O=C(O)c1cccc2c(=O)c3ccccc3sc12 [Compound 61] | 1.2 parts by mass | –
3 | 270 nm | CC(C)(O)C(=O)c1ccc(OCCO)cc1 [Compound 101] | 0.8 parts by mass | –
4 | – | O=C(c1ccccc1)c1ccccc1 [Compound 103, benzophenone] | – | 253 nm
5 | – | CC12CCC(C(=O)C1=O)C2(C)C (centres unmarked) [Compound 104, camphor quinone] | <0.1 parts by mass | 460 nm
6 | 371 nm | Cc1cc(C)c(C(=O)P(=O)(O)c2ccccc2)c(C)c1 [Compound 105] | ≥50 parts by mass | –
7 | – | O=C(O)c1cccc2c(=O)c3ccccc3sc12 [Compound 106, thioxanthone carboxylic acid] | <0.1 parts by mass | 391 nm
